Test results from US20200131249A1, “NOVEL PROTEINS AND USE THEREOF” (EVOLVERITAS KFT., priority 2017, published 2020).
Where no end group is shown, it is not given here.

Tests used:
lectin pathway = assay: Lectin pathway activation tests in rat serum, all three assays (C3, C4, C5b-9 deposition); type: biochemical; details: result in words
Method: ELISA-based complement lectin pathway activation tests were performed on mannan coated plates using diluted individual (not pooled) rat serum. In these tests, inhibitory efficiencies of the protein of SEQ ID NO: 14 and SGMI-2 were compared. Three different assays were conducted that detect the deposition of C3, C4 or the terminal complement antigen C5b-9, respectively.
96-well Greiner high binding ELISA plates (cat. no. 655061) were coated with 100 μl/well 10 μg/ml mannan dissolved in coating buffer (50 mM sodium-carbonate pH 9.6) overnight at 4° C. Control wells contained coating buffer alone. Wells were blocked for at least 1 h at 37° C. with 200 μl/well
10 mg/ml bovine serum albumin (BSA) dissolved in 50 mM Tris pH 7.4, 150 mM NaCl, 0.1% Tween-20 buffer. Serial dilutions of the inhibitors were made in 10 mM HEPES pH 7.4, 150 mM NaCl, 5 mM CaCl2, 5 mM MgCl2, 0.1% Tween-20 buffer (serum dilution buffer). Rat serum was thawed on ice and diluted 35-fold in serum dilution buffer. […]
50 mM Tris pH 7.4, 150 mM NaCl, 5 mM CaCl2, 0.1% Tween-20 buffer (washing buffer) and 100 μl of the serum-inhibitor samples were transferred onto the plate. […] The 490 nm absorbance values were recorded using a PerkinElmer EnSpire multimode plate reader. Four parallels were measured for each data point. […]

classical pathway = assay: C3 deposition ELISA with diluted rat serum on IgG coated plates; type: biochemical; details: final concentrations as high as 50 μM; 50-fold diluted rat serum
Method: ELISA-based complement classical and alternative pathway activation tests were performed on IgG or lipopolysaccharide (LPS) coated plates, respectively, using diluted individual (not pooled) rat serum. In these tests, inhibitory efficiencies of the protein of SEQ ID NO: 14 and SGMI-2 were compared and C3 deposition was used for quantification of the complement activation.
96-well Greiner high binding ELISA plates were coated with 100 μl/well 10 μg/ml IgG (Sigma—12511) dissolved in coating buffer (50 mM sodium-carbonate pH 9.6) overnight at 4° C. Control wells contained coating buffer alone. Wells were blocked for 2 h at 37° C. with 200 μl/well 10 mg/ml bovine serum albumin (BSA) dissolved in 50 mM Tris pH 7.4, 150 mM NaCl, 0.1% Tween-20 buffer. Serial dilutions of the inhibitors were made in 10 mM HEPES pH 7.4, 150 mM NaCl, 5 mM CaCl2, 5 mM MgCl2, 0.1% Tween-20 buffer (serum dilution buffer). Rat serum was thawed on ice and diluted 25-fold in serum dilution buffer. The diluted inhibitor samples were mixed with the 25-fold diluted rat serum in 1:1 volume ratio resulting in 50-fold diluted rat serum-inhibitor samples. The samples were incubated at room temperature for 30 minutes. […] The 490 nm absorbance values were recorded using a PerkinElmer EnSpire multimode plate reader. Four parallels were measured for each data point.

Substance	inhibition of the lectin pathway in rat serum (lectin pathway)	inhibition of the classical pathway in rat serum (classical pathway)
SEQ ID NO: 14: TFPI-D2 variant protein with inhibitor loop PCRAVKR (SEQ ID NO: 4) (KPDFCFLEEDPGPCRAVKRRYFYNNQTKQCERFKYGGCLGNMNNFETLEECKNICEDG; ends and bridges not checked; cysteine pairing not given here)	completely inhibit	neither the protein of SEQ ID NO: 14 nor SGMI-2 were able to inhibit
SGMI-2 (GSGEVTCEPGTTFKDKCNTCRCGSDGKSAVCTKLWCNQ; Synthetic protein of insect origin) [reference compound]	completely inhibit	neither the protein of SEQ ID NO: 14 nor SGMI-2 were able to inhibit
